Experiments:
Type in all cases: cell-based
rat α9α10R117M receptor = rat α9α10R117M receptor (Rattus norvegicus, UniProt P43144+Q9JLB5, R143M); assay: ACh-evoked currents, two-electrode voltage clamp in Xenopus laevis oocytes
Source text: (§1) cDNAs encoding Gallus gallus (chick) or Rattus norvegicus (rat) α9 and α10 nAChR subunits were subcloned into a modified pGEMHE vector for expression studies in Xenopus laevis oocytes. Capped cRNAs were in vitro transcribed from linearized plasmid DNA templates using RiboMAX Large Scale RNA Production System (Promega, Madison, WI). Mutant subunits were produced using Quick Change XL II kit (Stratagene, La Jolla, CA). Amino acid sequences of rat and chicken α9, α10, and Torpedo α1 subunits were aligned using ClustalW (EMBL-EBI, Wellcome Genome Campus, Hinxton, Cambridgeshire). Residues were numbered according to the corresponding Torpedo α1 subunit mature protein ([Karlin, 2002]).
(§2) The maintenance of Xenopus laevis and the preparation and cRNA injection of stage V and VI oocytes have been described in detail elsewhere ([Verbitsky et al., 2000]). Typically, oocytes were injected with 50 nl of RNase-free water containing 0.01–1.0 ng of cRNA (at a 1:1 molar ratio when pairwise combined) and maintained in Barth’s solution at 18°C. Electrophysiological recordings were performed 2–6 days after cRNA injection under two-electrode voltage clamp with an Oocyte Clamp OC-725B or C amplifier (Warner Instruments Corp., Hamden, CT). Recordings were filtered at a corner frequency of 10 Hz using a 900BT Tunable Active Filter (Frequency Devices Inc., Ottawa, IL). Data acquisition was performed using a Patch Panel PP-50 LAB/1 interface (Warner Instruments Corp.) at a rate of 10 points per second. Both voltage and current electrodes were filled with 3 M KCl and had resistances of ∼1 MΩ. Data were analyzed using Clampfit from the pClamp 6.1 software (Molecular Devices, Sunnyvale, CA). During electrophysiological recordings, oocytes were continuously superfused (∼15 ml/min) with normal frog saline composed of: 115 mM NaCl, 2.5 mM KCl, 1.8 mM CaCl2, and 10 mM HEPES buffer, pH 7.2. […] Unless otherwise indicated, the membrane potential was clamped to −70 mV. To minimize activation of the endogenous Ca^2+ sensitive chloride current ([Elgoyhen et al., 2001]), all experiments were performed in oocytes incubated with the Ca^2+ chelator 1,2-bis(2-aminophenoxy)ethane-N,N,N′,N′-tetraacetic acid (acetoxymethyl ester) (100 µM) for 3 hours before electrophysiological recordings.
(§3) Concentration-response curves were normalized to the maximal agonist response in each oocyte. The mean and S.E.M. values of the responses are represented. […] Data were analyzed using Clampfit from the pClamp 6.1 software. […]

rat α9α10W55T receptor = molecular target: T1, rat α9α10W55T receptor (Rattus norvegicus, UniProt P43144+Q9JLB5, W81T); assay: as above
T1 construct: expressed in transfected cells; host or cells: Xenopus laevis oocytes (cRNA injection)
Source text: as §1, §2, §3

[1] = molecular target: rat α9α10 W55T/R117M receptor (Rattus norvegicus, UniProt P43144+Q9JLB5, R143M/W81T); assay: as above
Source text: as §1, §2, §3

rat α9Y190Tα10 receptor = rat α9Y190Tα10 receptor (Rattus norvegicus, UniProt P43144+Q9JLB5, Y217T); assay: as above
Source text: as §1, §2
(§4) Concentration-response curves were normalized to the maximal agonist response in each oocyte. The mean and S.E.M. values of the responses are represented. Agonist concentration-response curves were iteratively fitted, using Prism 5 software (GraphPad Software Inc., La Jolla, CA), with the equation: I/Imax = A^nH/(A^nH + EC50^nH), where I is the peak inward current evoked by the agonist at concentration A; Imax is the current evoked by the concentration of the agonist eliciting a maximal response; EC50 is the concentration of the agonist inducing a half-maximal current response; and nH is the Hill coefficient. Data were analyzed using Clampfit from the pClamp 6.1 software.

[2] = molecular target: rat α9CC/SSα10CC/SS receptor (Rattus norvegicus, UniProt P43144+Q9JLB5, C218S/C219S/C220S); assay: as above
Source text: as §1, §2, §4

rat α9W55Tα10 receptor = rat α9W55Tα10 receptor (Rattus norvegicus, UniProt P43144+Q9JLB5, W82T); assay: as above
Source text: as §1, §2, §4

[3] = molecular target: chicken α9α10 nAChR (wild type) (Gallus gallus, UniProt Q9I8C7+Q9PTS8); assay: ACh-evoked currents, two-electrode voltage clamp in Xenopus laevis oocytes, wild-type receptor
Source text: as §1
The maintenance of Xenopus laevis and the preparation and cRNA injection of stage V and VI oocytes have been described in detail elsewhere ([Verbitsky et al., 2000]). Typically, oocytes were injected with 50 nl of RNase-free water containing 0.01–1.0 ng of cRNA (at a 1:1 molar ratio when pairwise combined) and maintained in Barth’s solution at 18°C. […] Data were analyzed using Clampfit from the pClamp 6.1 software (Molecular Devices, Sunnyvale, CA). […]
Concentration-response curves were normalized to the maximal agonist response in each oocyte. […] Data were analyzed using Clampfit from the pClamp 6.1 software.

Chain of chicken α9α10 nAChR (wild type) (Q9I8C7 27-452): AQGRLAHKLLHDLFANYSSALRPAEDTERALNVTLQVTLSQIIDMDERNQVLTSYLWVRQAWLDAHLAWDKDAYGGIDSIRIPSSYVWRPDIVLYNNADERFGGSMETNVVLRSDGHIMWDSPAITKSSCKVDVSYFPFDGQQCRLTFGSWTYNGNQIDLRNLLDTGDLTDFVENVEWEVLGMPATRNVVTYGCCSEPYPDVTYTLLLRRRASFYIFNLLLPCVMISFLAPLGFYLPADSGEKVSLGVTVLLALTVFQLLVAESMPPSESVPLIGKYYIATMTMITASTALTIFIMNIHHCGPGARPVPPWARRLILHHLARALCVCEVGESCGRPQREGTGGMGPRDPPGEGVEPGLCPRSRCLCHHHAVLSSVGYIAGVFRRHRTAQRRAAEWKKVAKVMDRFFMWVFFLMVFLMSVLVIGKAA
Chain of chicken α9α10 nAChR (wild type) (Q9PTS8 28-484): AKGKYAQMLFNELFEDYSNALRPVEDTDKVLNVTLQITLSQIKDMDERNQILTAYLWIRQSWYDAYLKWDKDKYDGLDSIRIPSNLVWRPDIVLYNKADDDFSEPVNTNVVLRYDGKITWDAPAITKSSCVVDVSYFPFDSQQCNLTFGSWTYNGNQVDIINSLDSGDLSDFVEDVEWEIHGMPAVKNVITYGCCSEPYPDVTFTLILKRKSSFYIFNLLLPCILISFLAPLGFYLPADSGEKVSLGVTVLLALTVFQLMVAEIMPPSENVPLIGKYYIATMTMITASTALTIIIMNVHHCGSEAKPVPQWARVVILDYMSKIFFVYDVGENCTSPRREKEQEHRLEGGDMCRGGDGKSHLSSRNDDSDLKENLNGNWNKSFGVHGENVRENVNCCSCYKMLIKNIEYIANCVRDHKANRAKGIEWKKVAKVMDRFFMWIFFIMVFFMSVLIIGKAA
Chain of rat α9α10 W55T/R117M receptor (P43144 26-479): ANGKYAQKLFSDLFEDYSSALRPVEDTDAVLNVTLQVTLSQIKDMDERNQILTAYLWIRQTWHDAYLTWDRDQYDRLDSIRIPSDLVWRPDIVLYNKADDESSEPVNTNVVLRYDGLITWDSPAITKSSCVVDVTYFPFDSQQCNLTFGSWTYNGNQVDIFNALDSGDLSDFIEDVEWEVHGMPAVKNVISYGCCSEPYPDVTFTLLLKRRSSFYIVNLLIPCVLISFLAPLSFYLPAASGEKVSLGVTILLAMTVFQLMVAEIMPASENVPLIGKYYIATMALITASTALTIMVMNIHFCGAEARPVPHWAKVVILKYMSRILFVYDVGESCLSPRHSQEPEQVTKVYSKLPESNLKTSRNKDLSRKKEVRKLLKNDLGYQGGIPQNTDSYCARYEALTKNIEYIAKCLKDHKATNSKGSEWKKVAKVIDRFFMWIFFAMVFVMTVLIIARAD
Chain of rat α9α10 W55T/R117M receptor (Q9JLB5 25-447 W81T/R143M): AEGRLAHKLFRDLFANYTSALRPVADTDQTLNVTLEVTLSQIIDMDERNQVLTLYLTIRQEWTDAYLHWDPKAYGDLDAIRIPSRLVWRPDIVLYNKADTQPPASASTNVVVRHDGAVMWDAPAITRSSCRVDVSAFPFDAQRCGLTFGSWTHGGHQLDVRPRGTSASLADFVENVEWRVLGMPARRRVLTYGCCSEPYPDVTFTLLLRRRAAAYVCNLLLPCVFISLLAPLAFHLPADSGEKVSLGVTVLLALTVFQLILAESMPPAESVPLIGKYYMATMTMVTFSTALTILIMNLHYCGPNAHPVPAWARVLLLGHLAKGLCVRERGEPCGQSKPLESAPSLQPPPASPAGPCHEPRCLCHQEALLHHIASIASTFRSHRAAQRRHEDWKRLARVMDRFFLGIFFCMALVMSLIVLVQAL
Chain of rat α9Y190Tα10 receptor (P43144 26-479 Y217T): as the sequence (P43144 26-479) above, with Y192T counted along it
Chain of rat α9Y190Tα10 receptor (Q9JLB5 25-447): as the sequence (Q9JLB5 25-447 W81T/R143M) above, with T57W, M119R counted along it
Chain of rat α9α10R117M receptor (P43144 26-479): as the sequence (P43144 26-479) above
Chain of rat α9α10R117M receptor (Q9JLB5 25-447 R143M): as the sequence (Q9JLB5 25-447 W81T/R143M) above, with T57W counted along it
T1 sequence (P43144 26-479): as the sequence (P43144 26-479) above
T1 sequence (Q9JLB5 25-447 W81T): as the sequence (Q9JLB5 25-447 W81T/R143M) above, with M119R counted along it
Chain of rat α9W55Tα10 receptor (P43144 26-479 W82T): as the sequence (P43144 26-479) above, with W57T counted along it
Chain of rat α9W55Tα10 receptor (Q9JLB5 25-447): as the sequence (Q9JLB5 25-447 W81T/R143M) above, with T57W, M119R counted along it
Chain of rat α9CC/SSα10CC/SS receptor (P43144 26-479 C219S/C220S): as the sequence (P43144 26-479) above, with C194S, C195S counted along it
Chain of rat α9CC/SSα10CC/SS receptor (Q9JLB5 25-447 C218S/C219S): as the sequence (Q9JLB5 25-447 W81T/R143M) above, with T57W, M119R, C194S, C195S counted along it

CC(=O)OCC[N+](C)(C)C [ACh, acetylcholine] was tested, and the “Imax (maximal evoked current)” value (rat α9α10R117M receptor) was 107 ± 38 nA, the “Imax (maximal evoked current)” value (rat α9α10W55T receptor) was 177 ± 81 nA and the “Imax (maximal evoked current)” value ([1]; rat α9α10 W55T/R117M, oocytes) was 245 ± 83 nA. The “Free energy coupling, double-mutant cycle” value ([1]; α10W55 and α10R117) was -1.47 kcal/mol, the “Imax (maximal evoked current)” value (rat α9Y190Tα10 receptor) was 112 ± 6 nA and the “Imax (maximal evoked current)” value [2] was 360 ± 119 nA. The “Imax (maximal evoked current)” value (rat α9W55Tα10 receptor) was 42 ± 4 nA, the EC50 [3] was 16 ± 2 µM and the “Imax (maximal evoked current)” value [3] was 100 ± 12 nA.

— publication PMC5325082 (Molecular Pharmacology, 2017)
